Assay [1] addresses Avi-humanTEAD4 217-434 / Cy5 labeled humanYAP 60-100 (Homo sapiens (Human), UniProt Q15561). The assay is described as follows: TR-FRET YAP-TEAD4 in-vitro biochemical assay. It counts as binding. The settings on record: 1 nM Avi-humanTEAD4 217-434, 20 nM Cy5-humanYAP 60-100, 1 h room temperature. (Time-resolved FRET reads energy transfer from a long-lived donor to a nearby acceptor.)

The subject of assay [2] is NCI-H2052 Tet-On shYAP_2371 pLenti6 MCAT_Luc cells (YAP-dependent transcription). The assay is described as follows: YAP reporter gene activity assay (MCAT-luciferase), NCI-H2052. The format is cell-based. The conditions noted are these: Homo sapiens, NCI-H2052, 24 h, 24 hours incubation, BrightGlo luminescence. In short, it runs like this: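 NCI-H2052 cells carrying an MCAT-luciferase reporter and a tetracycline-inducible YAP 3′UTR shRNA were treated with eleven 2-fold compound dilutions (0.1% DMSO) for 24 h at 37 °C. BrightGlo luminescence was background-subtracted and expressed as % of DMSO control. IC50 came from a four-parameter fit; MKN-45/Ubc-luc cells served as the specificity counterscreen.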

In assay [3] the test system is NCI-H2052 Tet-On shYAP_2371 pLenti6 MCAT_Luc cells. The assay is described as follows: Proliferation assay (resazurin), NCI-H2052. The format is cell-based. The conditions noted are these: Homo sapiens, NCI-H2052, 72 h, 72 hours incubation. In short, it runs like this:
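The NCI-H2052 line carries a Tet-inducible shRNA against the YAP1 3′UTR and an MCAT luciferase reporter. The day after seeding, it received eleven 2-fold compound dilutions at 0.1% DMSO, and viability was read by resazurin fluorescence.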
For orientation: Resazurin is reduced to fluorescent resorufin, in cell work by metabolically active cells.

In assay [4] the test system is MKN-45/Ubc-luc cells. The assay is described as follows: Proliferation assay (resazurin), MKN-45. It counts as cell-based. The settings on record: Homo sapiens, 72 hours incubation.
Assay [5] deals with MKN-45/Ubc-luc cells. The assay is described as follows: Reporter gene specificity control (Ubc-luciferase), MKN-45. The conditions noted are these: Homo sapiens, MKN-45, 24 h, read-out: Reporter gene assay MKN-45 IC50 [μM], MKN-45/Ubc-luc cells (YAP deleted, specificity control), 24 hours incubation. (In general: In a reporter assay the amount or activity of a reporter protein is the signal.)

Avi-humanTEAD4 217-434 / Cy5 labeled humanYAP 60-100, sequence (Q15561 217-434): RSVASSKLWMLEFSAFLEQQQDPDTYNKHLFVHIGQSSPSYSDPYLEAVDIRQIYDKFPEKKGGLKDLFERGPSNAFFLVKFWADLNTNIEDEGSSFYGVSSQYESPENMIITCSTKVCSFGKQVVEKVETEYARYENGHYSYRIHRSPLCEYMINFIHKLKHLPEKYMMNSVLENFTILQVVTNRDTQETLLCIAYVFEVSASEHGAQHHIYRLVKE

As a reminder, the GI50 is the concentration giving 50% growth inhibition. Read a high GI50 as less potent growth inhibition. On to `C[C@H]1c2c(cc(F)c(Cl)c2-c2c(C(N)=O)cnc(OCCO)c2F)O[C@]1(CN[C@H]1CC[C@](C)(O)CC1)c1ccccc1` (atropisomer, axis not shown) [Example 119], for which the IC50 is 2 nM in assay [1], 22 nM in assay [2] and above 10 µM in the assay on MKN-45/Ubc-luc cells [5]. The GI50 was 28 nM in assay [3] and above 10000 nM with MKN-45/Ubc-luc cells [4].
As to `C[C@H](O)COc1ccc(C#N)c(-c2c(Cl)c(F)cc3c2[C@H](C)[C@@](CN[C@H]2CC[C@](C)(O)CC2)(c2ccccc2)O3)c1F` (atropisomer, axis not shown) [Example 120, 2-((2S,3S,4S)-5-Chloro-6-fluoro-2-((((trans)-4-hydroxy-4-methylcyclohexyl)amino)methyl)-3-methyl-2-phenyl-2,3-dihydrobenzofuran-4-yl)-3-fluoro-4-((S)-2-hydroxypropoxy)benzonitrile], the IC50 in assay [1] is 3 nM; in assay [2] it was 20 nM; with MKN-45/Ubc-luc cells [5], above 10 µM. The GI50 in assay [3] is 22 nM; with MKN-45/Ubc-luc cells [4], above 10000 nM.
For `CNC(=O)c1ccc(OCCO)c(F)c1-c1c(Cl)c(F)cc2c1[C@H](C)[C@@](CN[C@H]1CC[C@](C)(O)CC1)(c1ccccc1)O2` (atropisomer, axis not shown) [Example 121, 2-((2S,3S,4S)-5-Chloro-6-fluoro-2-((((trans)-4-hydroxy-4-methylcyclohexyl)amino)methyl)-3-methyl-2-phenyl-2,3-dihydrobenzofuran-4-yl)-3-fluoro-4-(2-hydroxyethoxy)-N-methylbenzamide] the same measures were 2 nM, 20 nM, above 10 µM, 36 nM and above 10000 nM.
The corresponding values for `CNC[C@]1(c2ccccc2)Oc2cc(F)c(Cl)c(-c3c(C(=O)NC)ccc(OC[C@H](C)O)c3F)c2[C@@H]1C` (atropisomer, axis not shown) [Example 122, 2-((2S,3S,4S)-5-Chloro-6-fluoro-3-methyl-2-((methylamino)methyl)-2-phenyl-2,3-dihydrobenzofuran-4-yl)-3-fluoro-4-((S)-2-hydroxypropoxy)-N-methylbenzamide] are 6 nM, 85 nM, above 10 µM, 59 nM and above 10000 nM.
Take `C[C@H](O)COc1ccc(C(N)=O)c(-c2c(Cl)c(F)cc3c2[C@H](C)[C@@](CN)(c2ccccc2)O3)c1F` (atropisomer, axis not shown) [Example 123, 2-((2S,3S,4S)-2-(Aminomethyl)-5-chloro-6-fluoro-3-methyl-2-phenyl-2,3-dihydrobenzofuran-4-yl)-3-fluoro-4-((S)-2-hydroxypropoxy)benzamide]: the IC50 in assay [1] is 2 nM; in assay [2], 25 nM; in the assay on MKN-45/Ubc-luc cells [5] it was above 10 µM. Besides, the GI50 in assay [3] is 44 nM; in the assay with MKN-45/Ubc-luc cells [4], above 10000 nM.
For `C[C@H]1c2c(cc(F)c(Cl)c2-c2c(OCCO)ccc(F)c2F)O[C@]1(CN)c1ccccc1` (atropisomer, axis not shown) [Example 124, 2-(2-((2S,3S,4S)-2-(Aminomethyl)-5-chloro-6-fluoro-3-methyl-2-phenyl-2,3-dihydrobenzofuran-4-yl)-3,4-difluorophenoxy)ethan-1-ol] the same measures were 11 nM, 1230 nM, above 10 µM, 1070 nM and above 10000 nM.
As to `CNC[C@]1(c2cccc(O)n2)Oc2cc(F)c(Cl)c(-c3c(C(N)=O)ccc(OC)c3F)c2[C@@H]1C` (atropisomer, axis not shown) [Example 125, 2-((2R,3S,4S)-5-Chloro-6-fluoro-2-(6-hydroxypyridin-2-yl)-3-methyl-2-((methylamino)methyl)-2,3-dihydrobenzofuran-4-yl)-3-fluoro-4-methoxybenzamide], the IC50 in assay [1] was 11 nM; in assay [2], 671 nM; with MKN-45/Ubc-luc cells [5], above 10 µM. Further, the results for the GI50 (in assay [3]; with MKN-45/Ubc-luc cells [4]) were 1180 nM and above 7500 nM, respectively.
As for `COCCOc1ccc(C(N)=O)c(-c2c(Cl)c(F)cc3c2[C@H](C)[C@@](CN[C@H]2CC[C@](C)(O)CC2)(c2ccccn2)O3)c1F` (atropisomer, axis not shown) [Example 126, 2-((2R,3S,4S)-5-Chloro-6-fluoro-2-((((trans)-4-hydroxy-4-methylcyclohexyl)amino)methyl)-3-methyl-2-(pyridin-2-yl)-2,3-dihydrobenzofuran-4-yl)-3-fluoro-4-(2-methoxyethoxy)benzamide], the values for the IC50 (in assay [1]; in assay [2]; with MKN-45/Ubc-luc cells [5]) were 2 nM, 45 nM and above 10 µM, respectively. Moreover, the figures for the GI50 (in assay [3]; in the assay with MKN-45/Ubc-luc cells [4]) were 76 nM and above 10000 nM, respectively.
`COc1ccc(C(N)=O)c(-c2c(Cl)c(F)cc3c2[C@H](C)[C@@](CN[C@H]2CC[C@](C)(O)CC2)(c2cccnc2)O3)c1F` (atropisomer, axis not shown) [Example 127, 2-((2S,3S,4S)-5-Chloro-6-fluoro-2-((((trans)-4-hydroxy-4-methylcyclohexyl)amino)methyl)-3-methyl-2-(pyridin-3-yl)-2,3-dihydrobenzofuran-4-yl)-3-fluoro-4-methoxybenzamide]: the values for the IC50 (in assay [1]; in assay [2]; in the assay with MKN-45/Ubc-luc cells [5]) were 6 nM, 65 nM and above 10 µM, respectively. Besides, the GI50 was 141 nM in assay [3] and above 10000 nM with MKN-45/Ubc-luc cells [4].
As to `COc1ccc(C(N)=O)c(-c2c(C(F)(F)F)ccc3c2C[C@@](CN)(c2ccccc2)O3)c1` (atropisomer, axis not shown) [Example 128, 2-((2S,4R)-2-(Aminomethyl)-2-phenyl-5-(trifluoromethyl)-2,3-dihydrobenzofuran-4-yl)-4-methoxybenzamide], the values for the IC50 (in assay [1]; in assay [2]; in the assay with MKN-45/Ubc-luc cells [5]) were 176 nM, 5720 nM and above 10 µM, respectively. Further, the concentration for 50% growth inhibition (GI50) in assay [3] was 7050 nM; with MKN-45/Ubc-luc cells [4] it was above 10000 nM.
On to `CNC(=O)c1ccc(OC)c(F)c1-c1c(C#N)ccc2c1C[C@@](CN[C@H]1CC[C@](C)(O)CC1)(c1ccccc1)O2` (atropisomer, axis not shown) [Example 129, 2-((2S,4R)-5-Cyano-2-((((trans)-4-hydroxy-4-methylcyclohexyl)amino)methyl)-2-phenyl-2,3-dihydrobenzofuran-4-yl)-3-fluoro-4-methoxy-N-methylbenzamide], for which the IC50 was 25 nM in assay [1], 615 nM in assay [2] and above 10 µM in the assay with MKN-45/Ubc-luc cells [5]. Besides, the figures for the GI50 (in assay [3]; with MKN-45/Ubc-luc cells [4]) were 892 nM and above 10000 nM, respectively.
Regarding `NC[C@@]1(c2ccccc2)Cc2c(cc(F)c(Cl)c2-c2c(F)cccc2C(N)=O)N1` (atropisomer, axis not shown) [Example 134, 2-((2S,4S)-2-(aminomethyl)-5-chloro-6-fluoro-2-phenylindolin-4-yl)-3-fluorobenzamide], the results for the IC50 (in assay [1]; in assay [2]; in the assay with MKN-45/Ubc-luc cells [5]) were 74 nM, 2310 nM and above 10 µM, respectively. For the same molecule, the concentration for 50% growth inhibition (GI50) in assay [3] was 1570 nM; in the assay with MKN-45/Ubc-luc cells [4], above 10000 nM.
For `NC(=O)c1ccc(OC(F)F)c(F)c1-c1c(Cl)ccc2c1C[C@@](CNC1CCCCC1)(c1ccccc1)O2` (atropisomer, axis not shown) [Example 135, 2-((2S,4S)-5-Chloro-2-((cyclohexylamino)methyl)-2-phenyl-2,3-dihydrobenzofuran-4-yl)-4-(difluoromethoxy)-3-fluorobenzamide] the same measures were 7 nM, 247 nM, above 10 µM, 627 nM and 8640 nM.
For `CNC[C@]1(c2ccccc2)Oc2cc(F)c(Cl)c(-c3c(C(N)=O)ccc(OC)c3F)c2[C@@H]1C` (atropisomer, axis not shown) [Example 144, 2-((2S,3S,4S)-5-Chloro-6-fluoro-3-methyl-2-((methylamino)methyl)-2-phenyl-2,3-dihydrobenzofuran-4-yl)-3-fluoro-4-methoxybenzamide], the IC50 was 2 nM in assay [1], 10 nM in assay [2] and above 8 µM in the assay with MKN-45/Ubc-luc cells [5]. Moreover, the GI50 in assay [3] was 10 nM; in the assay with MKN-45/Ubc-luc cells [4] it was above 8000 nM.
For the molecule `CNC[C@]1(c2ccccc2)Oc2cc(F)c(Cl)c(-c3c(C(=O)NC)cnc(OCCO)c3F)c2[C@@H]1C` (atropisomer, axis not shown) [Example 145, 4-((2S,3S,4S)-5-Chloro-6-fluoro-3-methyl-2-((methylamino)methyl)-2-phenyl-2,3-dihydrobenzofuran-4-yl)-5-fluoro-6-(2-hydroxyethoxy)-N-methylnicotinamide], the IC50 in assay [1] was 5 nM; in assay [2], 46 nM; in the assay on MKN-45/Ubc-luc cells [5], above 20 µM. For the same molecule, the GI50 in assay [3] is 58 nM; in the assay on MKN-45/Ubc-luc cells [4] it was above 20000 nM.

The record behind these values is US12083101B2, “Biaryl derivatives as YAP/TAZ-TEAD protein-protein interaction inhibitors” (Novartis AG, priority 2020, dated 2024).
